Data taken from US12065443B2, “Compounds and pharmaceutical compositions thereof for the treatment of diseases” (priority 2017, dated 2024).

Tests used:
[1] = system: LPS triggered IL-10 secretion in monocyte-derived macrophages (MdM); test: MdM assay: LPS-triggered IL-10 (ELISA); format: cell-based, human; settings: maximal fold change vs LPS only, median across assays
Method: This assay evaluates illustrative compounds of the invention for their inhibition of LPS-induced TNFα and LPS triggered IL-10 secretion in monocyte-derived macrophages.
PBMCs are isolated from human blood samples (buffycoats). The buffy coat is aseptically transferred into a 50 mL Falcon tube, and diluted 1/2 in PBS. Falcon tubes are filled with 20 mL Lymphoprep™, on top of which 25 mL of the buffy coat is carefully added, tubes are centrifuged for 35 min at 400 g in temperature controlled centrifuge, without brake, at 25° C. PBMCs are aspirated from the white interface layer between sample and Lymphoprep™. PBMCs are washed five times in PBS.
PBMCs are centrifuged at 300×g for 10 min and resuspended at a density of 1.0E07 cells/80 μL Miltenyi buffer (PBS, pH 7.4, 1% FBS, 2 mM EDTA).
Starting from this point of the protocol all steps are performed on ice. 20 μL of CD14+ micro-beads are added per 1.0E07 cells, the tube is mixed and incubated for 15 min in the fridge at 4° C. Cell suspension volume is adjusted to total volume of 100 mL using Miltenyi buffer, mixed gently and subsequently centrifuged for 10 min at 300× g. Supernantant is discarded and cell pellet is resuspended in 12 mL of Miltenyi buffer.
Four LS columns are placed in the MACS Separator (magnet) from Miltenyi Biotec, and are prewet by rinsing with 3 mL of MACS buffer per column. Three mL of cell suspension is added onto the column (max 1*10^8 of labelled cells/column), and columns are subsequently washed 3 times with 3 mL of Miltenyi buffer.
The columns are removed from the magnets, and 5 mL of Miltenyi buffer are added to the column to flush out the CD14+ fraction by pushing the plunger into the column. The flushed fractions are collected in a fresh 50 mL Falcon and volume is adjusted to 30 mL using Miltenyi buffer, cells are centrifuged for 10 min at 300× g. The obtained cell pellet is resuspended in 10 mL RPMI w/o FBS, and cell density is determined using a hematologic analyser (Sysmex XS-500i).
On day 10, MdMs are triggered and compound is added.
A compound dilution plate is made in 100% DMSO by 3-fold dilution of 10 mM stock solution. An intermediate dilution plate (10× final concentration) is made by diluting the compound dilution plate 50-fold in RPMI medium.
Medium is carefully removed from cell plates using multichannel pipette, and replaced by 80 μL fresh medium. 10 μL of the 10× final concentration compound is added to the cells and incubated for 1 hour at 37° C. before addition of trigger. No trigger conditions/trigger conditions are spiked with equal final DMSO concentrations of 0.2% DMSO. 10 μL of 10×LPS (final conc. 200 ng/mL) solution are added to all wells except for the ‘no trigger wells’ where 10 μL medium is added. Supernatant is collected after 2 h (IL-10 determination) and after 20 h (TNFα determination) of LPS triggering.
Plates are washed three times with PBST, where after 100 μL of Strep-HRP conjugate (0.5 μg/mL final concentration diluted in dilution buffer) is added. Plates are incubated in the dark, at 37° C. for 30 min. Plates are washed three times with PBST. […] 100 μL of substrate solution is added to each well and incubated until brilliant blue color develops. The reaction is stopped by adding 50 μL of 1 M H2SO4, after which absorbance is measured at 450 nm on the SpectraMax i3, Molecular Devices.
To quantify these inductions fold changes (FC) compared to ‘LPS only’ are calculated for each concentration tested and the maximal FC is calculated (IL-10 FCmax):
[formula] wherein ABS=Absorbance measured at 450 nm.
The median maximal FC for test compounds across two or more assays is reported (IL-10FCmax median).

[2] = system: LPS-induced TNFα secretion in monocyte-derived macrophages (MdM); test: MdM assay: LPS-triggered TNFα (ELISA); format: cell-based, human; settings: Homo sapiens, Macrophage, LPS-triggered TNFα inhibition
Procedure, shortened: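 Human CD14+ monocytes isolated from buffy-coat PBMCs by magnetic beads, differentiated to macrophages; on day 10 compound preincubated 1 h at 37 °C, then LPS 200 ng/mL added (0.2% DMSO). Supernatant taken after 20 h; TNFα quantified by sandwich ELISA against standard curve.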

[3] = molecular target: T1, SIK3 (Homo sapiens, UniProt Q9Y2K2); test: biochemical
T1 construct: purchased SignalChem S12-11G-100
Procedure, shortened: (§1)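 AMARA peptide phosphorylation by SIK1–3 is quantified through ^33P uptake from a labeled/unlabeled ATP blend. Staurosporine at 10 μM final defines full inhibition, 1% DMSO the uninhibited signal. Quench uses phosphoric acid; counting follows filter capture.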

[4] = molecular target: T2, SIK2 (Homo sapiens, UniProt Q9H0K1); test: biochemical; settings: 33P radioactive SIK kinase assay, AMARA peptide, 10 μM ATP
T2 construct: purchased ThermoFisher Scientific PV4792
Procedure, shortened: as §1

[5] = molecular target: T3, SIK1 (Homo sapiens, UniProt P57059); test: biochemical; settings: 33P radioactive SIK kinase assay, AMARA peptide, 10 μM ATP; read-out: SIK1 IC50
T3 construct: purchased Carna Biosciences 02-131
Procedure, shortened: as §1

T1 sequence (Q9Y2K2 whole entry): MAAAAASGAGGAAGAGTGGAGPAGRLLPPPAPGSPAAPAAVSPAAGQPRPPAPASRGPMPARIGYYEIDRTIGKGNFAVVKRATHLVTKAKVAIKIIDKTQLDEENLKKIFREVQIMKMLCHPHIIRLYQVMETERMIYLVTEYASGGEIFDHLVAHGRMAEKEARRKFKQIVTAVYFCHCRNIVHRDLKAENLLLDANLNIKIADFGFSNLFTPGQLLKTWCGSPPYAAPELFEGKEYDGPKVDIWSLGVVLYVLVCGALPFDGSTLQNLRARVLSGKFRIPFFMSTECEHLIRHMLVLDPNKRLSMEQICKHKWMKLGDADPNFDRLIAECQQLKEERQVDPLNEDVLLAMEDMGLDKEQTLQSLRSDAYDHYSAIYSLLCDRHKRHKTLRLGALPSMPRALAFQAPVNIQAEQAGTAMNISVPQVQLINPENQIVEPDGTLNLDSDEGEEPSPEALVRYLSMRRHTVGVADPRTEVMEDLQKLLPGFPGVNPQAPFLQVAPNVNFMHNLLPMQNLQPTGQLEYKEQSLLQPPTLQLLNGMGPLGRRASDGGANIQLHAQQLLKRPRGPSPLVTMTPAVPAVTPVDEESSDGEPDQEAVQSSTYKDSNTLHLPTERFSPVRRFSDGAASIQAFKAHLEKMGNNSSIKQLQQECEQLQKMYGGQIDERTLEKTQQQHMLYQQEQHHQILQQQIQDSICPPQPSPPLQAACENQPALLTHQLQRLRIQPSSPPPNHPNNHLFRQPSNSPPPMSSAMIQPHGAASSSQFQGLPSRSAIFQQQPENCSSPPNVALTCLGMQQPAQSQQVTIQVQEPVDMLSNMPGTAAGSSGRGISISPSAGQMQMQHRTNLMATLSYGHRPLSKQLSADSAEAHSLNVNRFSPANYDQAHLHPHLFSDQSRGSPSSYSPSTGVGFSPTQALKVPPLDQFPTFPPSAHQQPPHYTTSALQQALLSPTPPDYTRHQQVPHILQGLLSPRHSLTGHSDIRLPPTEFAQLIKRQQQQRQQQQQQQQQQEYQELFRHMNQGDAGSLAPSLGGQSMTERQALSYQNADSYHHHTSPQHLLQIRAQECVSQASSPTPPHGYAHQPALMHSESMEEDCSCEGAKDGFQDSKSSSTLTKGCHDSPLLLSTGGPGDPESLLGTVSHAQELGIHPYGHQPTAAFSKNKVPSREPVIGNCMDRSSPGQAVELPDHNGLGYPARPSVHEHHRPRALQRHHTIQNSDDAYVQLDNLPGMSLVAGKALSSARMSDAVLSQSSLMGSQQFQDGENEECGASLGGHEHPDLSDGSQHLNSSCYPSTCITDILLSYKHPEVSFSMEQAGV
T2 sequence (Q9H0K1 whole entry): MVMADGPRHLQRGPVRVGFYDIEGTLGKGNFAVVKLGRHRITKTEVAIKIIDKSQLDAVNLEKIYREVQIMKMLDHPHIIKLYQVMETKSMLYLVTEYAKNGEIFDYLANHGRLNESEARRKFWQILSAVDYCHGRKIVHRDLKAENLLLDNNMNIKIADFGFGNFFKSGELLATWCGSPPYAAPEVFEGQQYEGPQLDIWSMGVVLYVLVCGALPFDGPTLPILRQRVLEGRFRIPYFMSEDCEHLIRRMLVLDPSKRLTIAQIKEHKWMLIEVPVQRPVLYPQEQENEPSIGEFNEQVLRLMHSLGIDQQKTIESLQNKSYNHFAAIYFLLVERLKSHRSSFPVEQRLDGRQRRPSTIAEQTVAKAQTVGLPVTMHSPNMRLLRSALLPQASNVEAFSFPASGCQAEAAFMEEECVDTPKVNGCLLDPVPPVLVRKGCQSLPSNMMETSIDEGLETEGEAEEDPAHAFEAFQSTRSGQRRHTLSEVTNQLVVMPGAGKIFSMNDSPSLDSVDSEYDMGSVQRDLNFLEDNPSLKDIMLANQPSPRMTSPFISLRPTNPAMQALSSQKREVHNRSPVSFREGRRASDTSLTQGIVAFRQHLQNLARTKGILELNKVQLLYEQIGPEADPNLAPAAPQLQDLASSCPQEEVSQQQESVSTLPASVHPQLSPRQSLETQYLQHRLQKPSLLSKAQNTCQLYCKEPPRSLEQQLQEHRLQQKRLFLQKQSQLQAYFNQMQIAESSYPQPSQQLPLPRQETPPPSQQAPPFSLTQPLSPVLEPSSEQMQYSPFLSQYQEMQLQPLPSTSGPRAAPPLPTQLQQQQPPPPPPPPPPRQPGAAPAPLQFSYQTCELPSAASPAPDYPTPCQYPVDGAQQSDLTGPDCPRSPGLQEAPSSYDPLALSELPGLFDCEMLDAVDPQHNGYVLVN
T3 sequence (P57059 whole entry): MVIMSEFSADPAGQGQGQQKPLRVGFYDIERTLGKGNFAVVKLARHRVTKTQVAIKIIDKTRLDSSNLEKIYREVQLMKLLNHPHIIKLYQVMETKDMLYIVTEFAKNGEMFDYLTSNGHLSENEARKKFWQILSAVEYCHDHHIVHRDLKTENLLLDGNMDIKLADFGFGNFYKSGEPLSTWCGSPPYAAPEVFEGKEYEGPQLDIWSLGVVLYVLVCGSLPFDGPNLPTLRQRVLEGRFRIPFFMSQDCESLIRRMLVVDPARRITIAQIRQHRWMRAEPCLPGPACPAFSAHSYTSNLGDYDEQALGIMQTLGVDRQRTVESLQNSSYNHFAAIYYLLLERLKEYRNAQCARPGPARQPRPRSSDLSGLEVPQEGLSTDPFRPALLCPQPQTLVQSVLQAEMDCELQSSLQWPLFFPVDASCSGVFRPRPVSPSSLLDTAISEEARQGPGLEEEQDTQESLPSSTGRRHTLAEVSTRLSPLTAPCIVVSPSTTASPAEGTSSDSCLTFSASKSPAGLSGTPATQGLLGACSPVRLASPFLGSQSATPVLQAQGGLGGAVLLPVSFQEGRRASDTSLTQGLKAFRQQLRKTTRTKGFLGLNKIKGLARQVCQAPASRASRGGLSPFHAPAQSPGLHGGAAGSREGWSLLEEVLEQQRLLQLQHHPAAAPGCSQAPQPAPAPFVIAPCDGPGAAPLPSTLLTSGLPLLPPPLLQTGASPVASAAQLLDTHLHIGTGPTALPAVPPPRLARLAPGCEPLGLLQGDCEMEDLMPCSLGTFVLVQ

| EC50 [2] [nM] | IC50 [3] [nM] | IC50 [4] [nM] | IC50 [5] [nM] | SMILES | IL-10 FCmax median [1] |
| --- | --- | --- | --- | --- | --- |
| 100 to 1000 | 10 to 100 | 0.01 to 10 | 10 to 100 | COc1cc(-c2cnn3cc(-c4cnn(C)c4)cnc23)cc(OC)c1C(=O)NCC(F)F [compound 24, N-(2,2-difluoroethyl)-2,6-dimethoxy-4-[6-(1-methylpyrazol-4-yl)pyrazolo[1,5-a]pyrimidin-3-yl]benzamide] | ++ (>1.5-4.5) |
| > 5000 | 0.01 to 10 | 0.01 to 10 | 0.01 to 10 | COc1cc(-c2cnc3cc(-c4cnn(CC(=O)O)c4)ccn23)cc(OC)c1C(=O)NCC(F)(F)F [Cpd 228, 2-[4-[3-[3,5-dimethoxy-4-(2,2,2-trifluoroethyl-carbamoyl)phenyl]imidazo[1,2-a]pyridin-7-yl]pyrazol-1-yl]acetic acid] | ++ (>1.5-4.5) |
| 100 to 1000 | 0.01 to 10 | 0.01 to 10 | 10 to 100 | COc1cc(-c2cnc3cc(-c4cnn(C)c4)ccn23)cc(Cl)c1C(=O)NCC(F)(F)F [compound 207, 2-chloro-6-methoxy-4-[7-(1-methylpyrazol-4-yl)imidazo[1,2-a]pyridin-3-yl]-N-(2,2,2-trifluoroethyl)benzamide] | ++ (>1.5-4.5) |
| 100 to 1000 | 0.01 to 10 | 0.01 to 10 | 10 to 100 | COc1ccc(-c2ccn3c(-c4cc(OC)c(C(=O)NCC(F)(F)F)c(OC)c4)cnc3c2)cn1 [compound 239, 2,6-dimethoxy-4-[7-(6-mcthoxy-3-pyridyl)imidazo[1,2--a]pyridin-3-yl]-N-(2,2,2-trifluoroethyl)benzamide] | ++ (>1.5-4.5) |
| 0.1 to 100 | 0.01 to 10 | 0.01 to 10 | 0.01 to 10 | CCOC(=O)CCCn1cc(-c2ccn3c(-c4cc(OC)c(C(=O)NCC(F)(F)F)c(OC)c4)cnc3c2)cn1 [compound 257, ethyl 4-[4-[3-[3,5-dimethoxy-4-(2,2,2-trifluoroethyl-carbamoyl)phenyl]imidazo[1,2-a]pyridin-7-yl]pyrazol-1-yl]butanoate] | + (≤1.5) |
| 100 to 1000 | 0.01 to 10 | 0.01 to 10 | 10 to 100 | CCn1cc(-c2ccc3c(c2)ncn3-c2cc(OC)c(C(=O)NCCF)c(OC)c2)cn1 [compound 10, 4-[5-(1-ethylpyrazol-4-yl)benzimidazol-1-yl]-N-(2-fluoroethyl)-2,6-dimethoxy-benzamide] | ++ (>1.5-4.5) |
| 0.1 to 100 | 0.01 to 10 | 0.01 to 10 | 10 to 100 | COc1cc(-n2cnc3cc(-c4cnn(C)c4)ccc32)cc(OC)c1C(=O)NC1CC1 [Cpd 86, N-cyclopropyl-2,6-dimethoxy-4-[5-(1-methylpyrazol-4-yl)benzimidazol-1-yl]benzamide] | ++ (>1.5-4.5) |
| 0.1 to 100 | 0.01 to 10 | 0.01 to 10 | 0.01 to 10 | COC(=O)CCCn1cc(-c2ccn3c(-c4cc(OC)c(C(=O)NCC(F)(F)F)c(OC)c4)cnc3c2)cn1 [compound 256, methyl 4-[4-[3-[3,5-dimethoxy-4-(2,2,2-trifluoroethyl-carbamoyl)phenyl]imidazo[1,2-a]pyridin-7-yl]pyrazol-1-yl]butanoate] | ++ (>1.5-4.5) |
| 0.1 to 100 | 0.01 to 10 | 0.01 to 10 | 10 to 100 | CCn1cc(-c2ccc3c(c2)ncn3-c2cc(OC)c(C(=O)NC3CC3)c(OC(F)F)c2)cn1 [compound 54, N-cyclopropyl-2-(difluoromethoxy)-4-[5-(1-ethylpyrazol-4-yl)benzimidazol-1-yl]-6-methoxy-benzamide] | ++ (>1.5-4.5) |
